Patent US20210038607A1, “OXADIAZOLYLTHIOPHENE DERIVATIVES USEFUL AS HISTONE DEACETYLASE INHIBITORS” (Karus Therapeutics Limited, priority 2018, published 2021)

Legend:
[1] = biological target: T1, Recombinant human HDAC6 (Homo sapiens, UniProt Q9UBN7); test: HDAC6 biochemical assay, AMC-labeled peptide substrate; conditions: HDAC6; read-out: HDAC Isoform IC50 (nM) 6
T1 construct: full length, MW=159 kDa; GST (N); host or cells: Sf9 insect cells (baculovirus)
T1 sequence (Q9UBN7 1-1215): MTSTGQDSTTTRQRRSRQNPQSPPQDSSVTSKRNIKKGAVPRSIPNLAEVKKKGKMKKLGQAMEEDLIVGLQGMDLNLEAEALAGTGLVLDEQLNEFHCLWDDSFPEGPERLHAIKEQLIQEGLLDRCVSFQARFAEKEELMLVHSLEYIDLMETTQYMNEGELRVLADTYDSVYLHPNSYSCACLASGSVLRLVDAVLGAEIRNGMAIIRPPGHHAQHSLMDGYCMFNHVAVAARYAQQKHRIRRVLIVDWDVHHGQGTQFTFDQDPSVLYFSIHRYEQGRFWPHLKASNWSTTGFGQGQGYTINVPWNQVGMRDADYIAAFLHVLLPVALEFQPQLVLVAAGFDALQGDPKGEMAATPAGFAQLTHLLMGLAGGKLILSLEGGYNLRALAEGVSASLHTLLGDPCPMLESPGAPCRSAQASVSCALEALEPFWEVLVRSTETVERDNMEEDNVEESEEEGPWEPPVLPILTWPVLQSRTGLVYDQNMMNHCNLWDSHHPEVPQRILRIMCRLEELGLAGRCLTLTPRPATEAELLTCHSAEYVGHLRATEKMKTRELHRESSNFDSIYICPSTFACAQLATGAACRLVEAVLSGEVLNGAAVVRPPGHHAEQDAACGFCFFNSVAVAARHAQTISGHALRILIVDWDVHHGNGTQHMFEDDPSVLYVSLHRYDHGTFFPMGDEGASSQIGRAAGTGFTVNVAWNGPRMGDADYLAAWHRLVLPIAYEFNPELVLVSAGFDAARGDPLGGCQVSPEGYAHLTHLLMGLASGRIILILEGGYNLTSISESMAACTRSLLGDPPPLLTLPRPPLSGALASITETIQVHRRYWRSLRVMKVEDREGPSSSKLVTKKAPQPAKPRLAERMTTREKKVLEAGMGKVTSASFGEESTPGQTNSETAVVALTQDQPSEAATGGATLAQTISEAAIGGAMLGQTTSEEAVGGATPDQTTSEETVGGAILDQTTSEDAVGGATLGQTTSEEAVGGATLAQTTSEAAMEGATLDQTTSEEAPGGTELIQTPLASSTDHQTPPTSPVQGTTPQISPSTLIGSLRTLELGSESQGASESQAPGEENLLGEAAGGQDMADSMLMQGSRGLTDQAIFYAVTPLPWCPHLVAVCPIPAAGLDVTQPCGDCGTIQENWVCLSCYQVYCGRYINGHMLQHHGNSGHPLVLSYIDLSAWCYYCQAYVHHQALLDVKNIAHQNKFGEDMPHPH
Description: (§1) Activity against all zinc-dependent HDACs 1 to 11 was assessed by using an acetylated AMC-labeled peptide substrate. The substrate RHKK(Ac)AMC was used for HDAC1, HDAC2, HDAC3, HDAC6 and HDAC10; the substrate used for HDAC8 was RHK(Ac)K(Ac)AMC. Activity against the class IIa HDACs (HDAC4, 5, 7, 9) and HDAC11 was determined using a class IIa-specific substrate, BOC-Lys(trifluoroacetyl)-AMC (“Trifluoroacetyl Lysine”; see Lahm et al, 2007, PNAS, 104, 17335-17340). All assays were based on the AMC-labeled substrate and developer combination.
(§2) The protocol involved a two-step reaction: first, the substrate with the acetylated lysine side chain is incubated with a sample containing HDAC activity, to produce the deacetylated products, which are then digested in the second step by the addition of developer to produce the fluorescent signal proportional to the amount of deacetylated substrates.
Recombinant human HDAC6 (GenBank Accession No. BC069243), full length, MW=159 kDa, was expressed by baculovirus in Sf9 insect cells using an N-terminal GST tag.
(§3) Assay Buffer: 50 mM Tris-HCl, pH8.0, 137 mM NaCl, 2.7 mM KCl, 1 mM MgC2. Before use, 1 mg/mL BSA and DMSO are added.
HDAC6: 0.3 ng/ul HDAC6 and 50 μM HDAC substrate are in the reaction buffer with 1% DMSO final. Incubate for 1 hours at 30° C.
(§4) Stage 1: Deacetylation of substrate by incubation of HDAC enzymes with compounds
(§5) Stage 2: Development by addition of Developer to digest the deacetylated substrate, and generate the fluorescent colour; Detection: 360/460 Ex/Em

[2] = biological target: T2, Human HDAC1 (Homo sapiens, UniProt Q13547); test: HDAC1 biochemical assay, AMC-labeled peptide substrate; conditions: read-out: HDAC Isoform IC50 (nM) 1
T2 construct: full length with C-terminal His-tag and C-terminal FLAG-tag; His (C); FLAG (C); host or cells: baculovirus expression system
Description: as §1, §2
Human HDAC1 (GenBank Accession No. NM_004964), full length with C-terminal His-tag and C-terminal FLAG-tag, MW=56 kDa, expressed in baculovirus expression system.
as §3
HDAC1: 0.3 ng/ul HDAC1 and 50 μM HDAC substrate are in the reaction buffer with 1% DMSO final. Incubate for 1 hour at 30° C.
as §4, §5

[3] = biological target: T3, Human HDAC9 (Homo sapiens, UniProt Q9UKV0); test: HDAC9 biochemical assay, class IIa-specific substrate; conditions: read-out: HDAC Isoform IC50 (nM) 9
T3 construct: amino acids 604-1066 with C-terminal His tag; His (C); host or cells: baculovirus expression system
Description: as §1, §2
Human HDAC9 (GenBank Accession No. NM_178423), amino acids 604-1066 with C-terminal His tag, MW=50.7 kDa, expressed in baculovirus expression system.
as §3
(§6) For class IIa HDACs, assay buffer is the same.
HDAC9: 0.06 ng/ul HDAC9 and 50 μM Class IIa HDAC substrate are in the reaction buffer with 1% DMSO final. Incubate for 30 minutes at room temperature.
as §4, §5

[4] = biological target: T4, Human HDAC7 (Homo sapiens, UniProt Q8WUI4); test: HDAC7 biochemical assay, class IIa-specific substrate; conditions: read-out: HDAC Isoform IC50 (nM) 7
T4 construct: (a.a. 518-end) with N-terminal GST tag; GST (N); host or cells: baculovirus expression system
T4 sequence (Q8WUI4 518-952 limits assumed): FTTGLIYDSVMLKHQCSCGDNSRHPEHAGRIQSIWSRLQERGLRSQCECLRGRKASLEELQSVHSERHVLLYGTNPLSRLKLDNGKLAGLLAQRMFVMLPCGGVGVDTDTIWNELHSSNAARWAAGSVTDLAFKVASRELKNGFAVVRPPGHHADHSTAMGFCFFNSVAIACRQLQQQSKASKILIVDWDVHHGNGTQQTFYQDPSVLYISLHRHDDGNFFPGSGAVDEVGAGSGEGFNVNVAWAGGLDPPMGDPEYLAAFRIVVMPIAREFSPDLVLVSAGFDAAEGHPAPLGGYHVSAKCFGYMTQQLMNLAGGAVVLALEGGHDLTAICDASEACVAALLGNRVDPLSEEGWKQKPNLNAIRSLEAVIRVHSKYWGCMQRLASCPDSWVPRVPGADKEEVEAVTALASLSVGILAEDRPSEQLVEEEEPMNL
Description: as §1, §2
Human HDAC7 (GenBank Accession No. AY302468), (a.a. 518-end) with N-terminal GST tag, MW=78 kDa, expressed in baculovirus expression system.
as §3, §6
HDAC7: 0.001 ng/ul HDAC7 and 50 μM Class IIa HDAC substrate are in the reaction buffer with 1% DMSO final. Incubate for 30 minutes at room temperature.
as §4, §5

[5] = biological target: T5, Human HDAC4 (Homo sapiens, UniProt P56524); test: HDAC4 biochemical assay, class IIa-specific substrate; conditions: read-out: HDAC Isoform IC50 (nM) 4
T5 construct: amino acids 627-1085 with N-terminal GST tag; GST (N); host or cells: baculovirus expression system
Description: as §1, §2
Human HDAC4 (GenBank Accession No. NM_006037), amino acids 627-1085 with N-terminal GST tag, MW=75.2 kDa, expressed in baculovirus expression system.
as §3, §6
HDAC4: 0.004 ng/ul HDAC4 and 50 μM Class IIa HDAC substrate are in the reaction buffer with 1% DMSO final. Incubate for 30 minutes at room temperature.
as §4, §5

[6] = biological target: T6, Human HDAC5 (Homo sapiens, UniProt Q9UQL6); test: HDAC5 biochemical assay, class IIa-specific substrate; conditions: read-out: HDAC Isoform IC50 (nM) 5
T6 construct: full length with C-terminal His tag, MW=51.1 kDa; His (C); host or cells: baculovirus expression system
Description: as §1, §2
Human HDAC5 (GenBank Accession No. NM_005474), full length with C-terminal His tag, MW=51.1 kDa, expressed in baculovirus expression system.
as §3, §6
HDAC5: 0.05 ng/ul HDAC5 and 50 μM Class IIa HDAC substrate are in the reaction buffer with 1% DMSO final. Incubate for 30 minutes at room temperature.
as §4, §5

T5 sequence (P56524 627-1084 limits assumed): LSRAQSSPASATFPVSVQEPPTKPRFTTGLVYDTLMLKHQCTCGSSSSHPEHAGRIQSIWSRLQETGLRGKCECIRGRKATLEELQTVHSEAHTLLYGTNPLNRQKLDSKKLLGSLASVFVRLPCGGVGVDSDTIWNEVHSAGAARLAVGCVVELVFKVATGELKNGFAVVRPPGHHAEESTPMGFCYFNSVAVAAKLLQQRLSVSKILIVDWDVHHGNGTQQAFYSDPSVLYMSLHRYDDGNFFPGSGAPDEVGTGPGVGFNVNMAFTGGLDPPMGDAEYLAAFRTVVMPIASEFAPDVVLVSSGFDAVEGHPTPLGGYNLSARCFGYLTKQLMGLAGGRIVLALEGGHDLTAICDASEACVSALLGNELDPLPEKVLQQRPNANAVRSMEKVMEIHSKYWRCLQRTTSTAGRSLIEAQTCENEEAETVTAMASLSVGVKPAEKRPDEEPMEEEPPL
T2 sequence (Q13547 whole entry, canonical isoform): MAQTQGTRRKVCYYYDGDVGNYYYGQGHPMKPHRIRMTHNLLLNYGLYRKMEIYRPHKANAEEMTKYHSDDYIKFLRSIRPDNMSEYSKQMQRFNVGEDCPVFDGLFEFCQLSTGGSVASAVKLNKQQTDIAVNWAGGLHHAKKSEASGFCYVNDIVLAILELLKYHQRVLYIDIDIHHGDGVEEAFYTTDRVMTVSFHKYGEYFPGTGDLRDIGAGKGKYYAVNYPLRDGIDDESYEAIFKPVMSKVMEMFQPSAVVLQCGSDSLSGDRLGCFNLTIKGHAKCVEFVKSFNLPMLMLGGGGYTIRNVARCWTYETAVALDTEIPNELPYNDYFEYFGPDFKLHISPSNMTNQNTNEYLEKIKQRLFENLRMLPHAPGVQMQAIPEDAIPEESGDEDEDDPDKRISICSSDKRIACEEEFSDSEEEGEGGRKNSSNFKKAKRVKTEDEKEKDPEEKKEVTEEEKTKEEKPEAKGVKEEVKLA
T3 sequence (Q9UKV0 604-1066 isoform Q9UKV0-5): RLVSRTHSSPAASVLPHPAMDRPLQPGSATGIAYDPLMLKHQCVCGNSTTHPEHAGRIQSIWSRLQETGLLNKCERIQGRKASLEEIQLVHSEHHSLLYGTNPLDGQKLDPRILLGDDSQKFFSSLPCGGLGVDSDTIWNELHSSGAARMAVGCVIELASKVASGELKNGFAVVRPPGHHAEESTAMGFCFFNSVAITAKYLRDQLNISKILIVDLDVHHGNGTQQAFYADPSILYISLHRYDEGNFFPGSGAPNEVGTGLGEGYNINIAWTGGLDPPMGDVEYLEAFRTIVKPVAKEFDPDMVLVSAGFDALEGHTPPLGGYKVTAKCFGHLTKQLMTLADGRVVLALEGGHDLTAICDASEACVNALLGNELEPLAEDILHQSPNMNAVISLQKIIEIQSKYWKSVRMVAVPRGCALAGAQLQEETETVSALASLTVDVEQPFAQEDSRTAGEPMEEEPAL
T6 sequence (Q9UQL6 656-1122 limits assumed): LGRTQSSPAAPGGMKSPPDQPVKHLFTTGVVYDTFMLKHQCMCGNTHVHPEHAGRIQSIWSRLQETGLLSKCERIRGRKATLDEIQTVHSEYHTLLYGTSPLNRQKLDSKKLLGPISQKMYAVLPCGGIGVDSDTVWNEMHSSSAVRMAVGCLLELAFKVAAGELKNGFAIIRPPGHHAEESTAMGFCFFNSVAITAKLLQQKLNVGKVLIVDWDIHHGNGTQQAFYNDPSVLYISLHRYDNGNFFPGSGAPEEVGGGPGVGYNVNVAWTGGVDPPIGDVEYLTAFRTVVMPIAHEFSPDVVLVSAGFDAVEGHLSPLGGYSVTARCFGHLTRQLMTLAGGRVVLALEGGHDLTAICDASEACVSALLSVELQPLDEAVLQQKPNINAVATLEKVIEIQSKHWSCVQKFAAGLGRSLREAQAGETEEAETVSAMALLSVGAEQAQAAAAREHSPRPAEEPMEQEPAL

IC50 [1] [nM] | IC50 [2] [nM] | IC50 [3] [nM] | IC50 [4] [nM] | IC50 [5] [nM] | IC50 [6] [nM] | Compound
≤ 1000 | > 10000 | ≤ 10000 | ≤ 10000 | ≤ 10000 | ≤ 10000 | FC(F)(F)c1nc(-c2ccc(CN(c3cnccn3)c3ncccc3N3CCOCC3)s2)no1 [Example AN, N-[3-(Morpholin-4-yl)pyridin-2-yl]-N-({5-[5-(trifluoromethyl)-1,2,4-oxadiazol-3-yl]thiophen-2-yl}methyl)pyrazin-2-amine]
≤ 10000 | > 10000 | ≤ 1000 | ≤ 1000 | ≤ 1000 | ≤ 1000 | FC(F)(F)c1nccc(N(Cc2ccc(-c3noc(C(F)(F)F)n3)s2)c2cnccn2)n1 [Example CD, N-(Pyrazin-2-yl)-2-(trifluoromethyl)-N-({5-[5-(trifluoromethyl)-1,2,4-oxadiazol-3-yl]thiophen-2-yl}methyl)pyrimidin-4-amine]
≤ 10000 | > 10000 | > 10000 | > 10000 | > 10000 | ≤ 10000 | FC(F)(F)c1nc(-c2ccc(CN(c3cnccn3)c3cc(C4CC4)ccn3)s2)no1 [Example AH, N-(4-Cyclopropylpyridin-2-yl)-N-({5-[5-(trifluoromethyl)-1,2,4-oxadiazol-3-yl]thiophen-2-yl}methyl)pyrazin-2-amine]
≤ 500 | > 10000 | ≤ 1000 | ≤ 500 | ≤ 500 | ≤ 500 | FC(F)(F)c1nc(-c2ccc(CN(c3ccncc3)c3cnccn3)s2)no1 [Example AR, N-(Pyridin-4-yl)-N-({5-[5-(trifluoromethyl)-1,2,4-oxadiazol-3-yl]thiophen-2-yl}methyl)pyrazin-2-amine]

More lines, now with the values behind:

Compound | IC50 [1] [nM] | IC50 [2] [nM] | IC50 [3] [nM] | IC50 [4] [nM] | IC50 [5] [nM] | IC50 [6] [nM]
FC(F)(F)c1cncc(N(Cc2ccc(-c3noc(C(F)(F)F)n3)s2)c2cnccn2)c1 [Example AQ, N-({5-[5-(Trifluoromethyl)-1,2,4-oxadiazol-3-yl]thiophen-2-yl}methyl)-N-[5-(trifluoromethyl)pyridin-3-yl]pyrazin-2-amine] | ≤ 10000 | > 10000 | ≤ 10000 | ≤ 10000 | ≤ 10000 | ≤ 1000
FC(F)(F)c1cnnc(N(Cc2ccc(-c3noc(C(F)(F)F)n3)s2)c2ccccn2)c1 [Example EG, N-(Pyridin-2-yl)-5-(trifluoromethyl)-N-({5-[5-(trifluoromethyl)-1,2,4-oxadiazol-3-yl]thiophen-2-yl}methyl)pyridazin-3-amine] | ≤ 10000 | > 10000 | > 10000 | > 10000 | ≤ 10000 | ≤ 10000
Cc1cncc(N(Cc2ccc(-c3noc(C(F)(F)F)n3)s2)c2cncc(C)n2)n1 [Example BX, 6-Methyl-N-(6-methylpyrazin-2-yl)-N-({5-[5-(trifluoromethyl)-1,2,4-oxadiazol-3-yl]thiophen-2-yl}methyl)pyrazin-2-amine] | ≤ 10000 | > 10000 | ≤ 10000 | ≤ 10000 | > 10000 | ≤ 10000
FC(F)(F)c1cnnc(N(Cc2ccc(-c3noc(C(F)(F)F)n3)s2)c2ncccn2)c1 [Example EK, N-(Pyrimidin-2-yl)-5-(trifluoromethyl)-N-({5-[5-(trifluoromethyl)-1,2,4-oxadiazol-3-yl]thiophen-2-yl}methyl)pyridazin-3-amine] | ≤ 10000 | > 10000 | > 10000 | > 10000 | > 10000 | ≤ 10000
COc1cncc(N(Cc2ccc(-c3noc(C(F)(F)F)n3)s2)c2cncc(OC)n2)n1 [Example BY, 6-Methoxy-N-(6-methoxypyrazin-2-yl)-N-({5-[5-(trifluoromethyl)-1,2,4-oxadiazol-3-yl]thiophen-2-yl}methyl)pyrazin-2-amine] | ≤ 10000 | > 10000 | ≤ 10000 | ≤ 10000 | ≤ 10000 | ≤ 10000
